Measurements from US10021881B2, “Vaporized administration of pesticides” (priority 2016, dated 2018).

Format: physicochemical
Method: This example relates to experiments performed to determine if degradation of pyrimethanil technical compounds observed at high temperatures was due to evaporation. In the present example, seven milligrams (7 mg) of pyrimethanil compounds 1 and 2 were analyzed in air by Thermo Gravity Analysis-Mass Spectrometry (TGA-MS). The pyrimethanil samples were loaded onto a TGA platinum pan of the Q5000 TGA instrument (TA instruments) and using standard TGA test methods as follows: select gas 2 (air), data storage on, ramp at 5° C. per minute to 100° C., isothermal for 180 mins, data storage off, equilibrate at 60° C., and end method. An isothermal method was also performed according to standard methods.
The TGA furnace was closed and purged with helium, then heated from room temperature to about 300° C. at 10° C. per minute. […] An isothermal method was also performed according to standard methods.

Q: For `Cc1cc(C)nc(Nc2ccccc2)n1` [pyrimethanil, 4,6-Dimethyl-N-phenylpyrimidin-2-amine], which thermal degradation is on record?
A: no thermal degradation
